From US9920069B2, “Compounds for treatment of fluoroquinolone-resistant bacteria” (The Board of Trustees of the University of Illinois, priority 2014, dated 2018)
Converted amounts (≈) assume the structure as drawn.

Legend:
physchem [1] = conditions: pH 7.4 PBS; three replicates ± SEM
Experimental: Enough PBS was added to make a 1 mg/mL solution. Compounds were then assessed by LC-MS and compared to a calibration curve to determine the solubility. […] Data shown is from three independent replicates±SEM. […] Between DMSO additions, the vial was vortexed and sonicated.
The compound was vortexed for ˜30 seconds before being placed into a bath sonicator (Cole Parmer, ultrasonic cleaner) for 1 h. […] The tubes were vortexed again for 30 s before being centrifuged at maximum speed (13,000×g) for 10 minutes. The supernatant was then filtered through a 0.22 μm syringe filter (Millipore Millex MP). […] Three independent replicates of each compound were performed. A calibration curve for each compound was generated from 1-400 μM by dissolving the compound in DMSO and making dilutions of the stock in DMSO. […] The concentration of the samples was calculated based on the calibration curves.

[2] = tested on: S. aureus 29213 (WT GyrA and WT ParC); test: microbe, parasite or virus in culture; format: cell-based; conditions: for MIC: Staphylococcus aureus, WT GyrA and WT ParC, read-out: MIC against S. aureus 29213
Experimental: (§1) Susceptibility testing was performed in triplicate using the microdilution broth method as outlined by the Clinical and Laboratory Standards Institute CLSI^52. MH broth was used.

A. baumannii ATCC 19606 = test: microbe, parasite or virus in culture; format: cell-based; conditions: Acinetobacter baumannii, ATCC19606, gyrA none, parC none
Experimental: (§2) E. coli MG1655 and the ΔAcrB strain were obtained from Prof. Cari Vanderpool at UIUC.
as §1

E. coli ATCC 25922 = test: microbe, parasite or virus in culture; format: cell-based; conditions: Escherichia coli, ATCC25922, gyrA none, parC none
Experimental: as §2, §1

P. aeruginosa PAO1 = test: microbe, parasite or virus in culture; format: cell-based; conditions: Pseudomonas aeruginosa, gyrA none, parC none
Experimental: as §2, §1

A. baumannii KB304 = test: MIC, microdilution broth; format: cell-based; conditions: Acinetobacter baumannii
Experimental: as §2, §1

A. baumannii KB349 = test: MIC, microdilution broth; format: cell-based; conditions: Acinetobacter baumannii
Experimental: as §2, §1

[3] = tested on: MRSA clinical isolate SAU.3021; test: MIC, microdilution broth; format: cell-based, S. aureus; conditions: Staphylococcus aureus, MRSA, read-out: MIC
Experimental: as §1

[4] = tested on: MRSA clinical isolate SAU.3026; test: MIC, microdilution broth; format: cell-based, S. aureus; conditions: Staphylococcus aureus, MRSA, read-out: MIC
Experimental: as §1

[5] = tested on: MRSA clinical isolate SAU.447; test: MIC, microdilution broth; format: cell-based, S. aureus; conditions: Staphylococcus aureus
Experimental: as §1

[6] = tested on: MRSA clinical isolate SAU.489; test: microbe, parasite or virus in culture; format: cell-based, S. aureus; conditions: Staphylococcus aureus, read-out: MIC
Experimental: as §1

[7] = tested on: MRSA clinical isolate SAU.491; test: microbe, parasite or virus in culture; format: cell-based, S. aureus; conditions: Staphylococcus aureus, read-out: MIC
Experimental: as §1

[8] = tested on: MRSA clinical isolate SAU.492; test: microbe, parasite or virus in culture; format: cell-based, S. aureus; conditions: Staphylococcus aureus, read-out: MIC
Experimental: as §1

[9] = tested on: MRSA clinical isolate SAU.493; test: microbe, parasite or virus in culture; format: cell-based, S. aureus; conditions: Staphylococcus aureus, read-out: MIC
Experimental: as §1

[10] = tested on: MRSA clinical isolate SAU.494; test: microbe, parasite or virus in culture; format: cell-based, S. aureus; conditions: Staphylococcus aureus, read-out: MIC
Experimental: as §1

[11] = tested on: MRSA clinical isolate SAU.495; test: microbe, parasite or virus in culture; format: cell-based, S. aureus; conditions: Staphylococcus aureus, read-out: MIC
Experimental: as §1

[12] = tested on: MRSA clinical isolate SAU.496; test: microbe, parasite or virus in culture; format: cell-based, S. aureus; conditions: Staphylococcus aureus, read-out: MIC
Experimental: as §1

[13] = tested on: MRSA clinical isolate SAU.708; test: microbe, parasite or virus in culture; format: cell-based, S. aureus; conditions: Staphylococcus aureus, read-out: MIC
Experimental: as §1

[14] = tested on: MRSA clinical isolate SAU.709; test: microbe, parasite or virus in culture; format: cell-based, S. aureus; conditions: Staphylococcus aureus, read-out: MIC
Experimental: as §1

[15] = tested on: MRSA clinical isolate SAU.710; test: microbe, parasite or virus in culture; format: cell-based, S. aureus; conditions: Staphylococcus aureus, read-out: MIC
Experimental: as §1

[16] = tested on: VRE clinical isolate C21190; test: organism not typed; format: cell-based, E. faecium
Experimental: (§3) QRDR mutations were determined as described in the text using primers (primer sequences can be found in Table 7).
as §1

[17] = tested on: VRE clinical isolate C27282; test: organism not typed; format: cell-based, E. faecium
Experimental: as §3, §1

[18] = tested on: VRE clinical isolate S226; test: organism not typed; format: cell-based, E. faecium
Experimental: as §3, §1

[19] = tested on: VRE clinical isolate S235; test: organism not typed; format: cell-based, E. faecium
Experimental: as §3, §1

VRE clinical isolate S34 = test: organism not typed; format: cell-based, E. faecium
Experimental: as §3, §1

VRE clinical isolate S51 = test: organism not typed; format: cell-based, E. faecium
Experimental: as §3, §1

[20] = tested on: VRE clinical isolate U275; test: organism not typed; format: cell-based, E. faecium
Experimental: as §3, §1

[21] = tested on: VRE clinical isolate U464; test: organism not typed; format: cell-based, E. faecium
Experimental: as §3, §1

[22] = tested on: VRE clinical isolate U503; test: organism not typed; format: cell-based, E. faecium
Experimental: as §3, §1

[23] = tested on: VRE clinical isolate U563; test: organism not typed; format: cell-based, E. faecium
Experimental: as §3, §1

VRE clinical isolate U63 = test: organism not typed; format: cell-based, E. faecium
Experimental: as §3, §1

[24] = tested on: VRE clinical isolate C28036; test: microbe, parasite or virus in culture; format: cell-based, Ent. Spp.; conditions: Enterococcus
Experimental: as §3, §1

[25] = tested on: VRE clinical isolate S206; test: organism not typed; format: cell-based, E. faecalis
Experimental: as §3, §1

VRE clinical isolates = test: Panel of VRE clinical isolates (FIG. 2B); format: cell-based, Enterococcus; conditions: n=22, in words
physchem [26] = conditions: organic solvent or mixture, thermodynamic from solid

Row | SMILES | Solubility in pH 7.4 PBS (physchem [1]) | MIC [2] | MIC (A. baumannii ATCC 19606) | MIC (E. coli ATCC 25922) | MIC (P. aeruginosa PAO1) | MIC (A. baumannii KB304) | MIC (A. baumannii KB349) | MIC [3] | MIC [4] | MIC [5] | MIC [6] | MIC [7] | MIC [8] | MIC [9] | MIC [10] | MIC [11] | MIC [12] | MIC [13] | MIC [14] | MIC [15] | also measured
1 | Cc1cc(=O)n(C)c2c3c4c(cc12)c(C)cc(=O)n4CO3 [DNM, deoxynybomycin] | 9 μM | > 1 µg/mL | > 4 µg/mL | > 4 µg/mL | > 4 µg/mL | > 4 µg/mL | > 4 µg/mL | 0.031 µg/mL (≈ 0.11 µM) | 0.125 µg/mL (≈ 0.443 µM) | 0.063 µg/mL (≈ 0.223 µM) | 0.031 µg/mL (≈ 0.11 µM) | 0.125 µg/mL (≈ 0.443 µM) | 0.063 µg/mL (≈ 0.223 µM) | 0.063 µg/mL (≈ 0.223 µM) | 0.063 µg/mL (≈ 0.223 µM) | 0.063 µg/mL (≈ 0.223 µM) | 0.063 µg/mL (≈ 0.223 µM) | 0.063 µg/mL (≈ 0.223 µM) | 0.063 µg/mL (≈ 0.223 µM) | 0.031 µg/mL (≈ 0.11 µM) | activity against FQ-sensitive strain 29213 ([2]; in words): modest activity; MIC [16]: > 1 µg/mL; MIC [17]: > 1 µg/mL; MIC [18]: 0.25 µg/mL (≈ 0.886 µM); MIC [19]: 0.125 µg/mL (≈ 0.443 µM); MIC (VRE clinical isolate S34): 1 µg/mL (≈ 3.54 µM); MIC (VRE clinical isolate S51): 0.25 µg/mL (≈ 0.886 µM); MIC [20]: 1 µg/mL (≈ 3.54 µM); MIC [21]: 1 µg/mL (≈ 3.54 µM); MIC [22]: > 1 µg/mL; MIC [23]: > 1 µg/mL; MIC (VRE clinical isolate U63): 1 µg/mL (≈ 3.54 µM); MIC [24]: 0.25 µg/mL (≈ 0.886 µM); MIC [25]: 1 µg/mL (≈ 3.54 µM); sensitivity of VRE clinical isolates (VRE clinical isolates): sensitive; solubility (physchem [26]): 200 µM (≈ 56.5 µg/mL)
2 | CCn1c(=O)cc(C)c2cc3c(C)cc(=O)n4c3c(c21)OC4 [DNM-2] | 121 μM | 8 µg/mL (≈ 27 µM) | > 24 µg/mL | > 24 µg/mL | > 24 µg/mL | > 24 µg/mL | > 24 µg/mL | 0.063 µg/mL (≈ 0.213 µM) | 0.125 µg/mL (≈ 0.422 µM) | 0.125 µg/mL (≈ 0.422 µM) | 0.125 µg/mL (≈ 0.422 µM) | 0.125 µg/mL (≈ 0.422 µM) | 0.125 µg/mL (≈ 0.422 µM) | 0.125 µg/mL (≈ 0.422 µM) | 0.125 µg/mL (≈ 0.422 µM) | 0.125 µg/mL (≈ 0.422 µM) | 0.125 µg/mL (≈ 0.422 µM) | 0.125 µg/mL (≈ 0.422 µM) | 0.125 µg/mL (≈ 0.422 µM) | 0.063 µg/mL (≈ 0.213 µM) | MIC [16]: 8 µg/mL (≈ 27 µM); MIC [17]: 4 µg/mL (≈ 13.5 µM); MIC [18]: 0.5 µg/mL (≈ 1.69 µM); MIC [19]: 0.5 µg/mL (≈ 1.69 µM); MIC (VRE clinical isolate S34): 1 µg/mL (≈ 3.37 µM); MIC (VRE clinical isolate S51): 0.5 µg/mL (≈ 1.69 µM); MIC [20]: 2 µg/mL (≈ 6.75 µM); MIC [21]: 2 µg/mL (≈ 6.75 µM); MIC [22]: 4 µg/mL (≈ 13.5 µM); MIC [23]: 2 µg/mL (≈ 6.75 µM); MIC (VRE clinical isolate U63): 4 µg/mL (≈ 13.5 µM); MIC [24]: 0.5 µg/mL (≈ 1.69 µM); MIC [25]: 2 µg/mL (≈ 6.75 µM); sensitivity of VRE clinical isolates (VRE clinical isolates): sensitive; solubility (physchem [26]): 4000 µM (≈ 1190 µg/mL)
